# Reference: PMC4106133 (Journal of medicinal chemistry, 2013)
# pIC50: −log10 of the molar value.
# Key:
# α4β2 nAChR [1] = target: T1, α4β2 nAChR (Rattus norvegicus, UniProt P09483+P12390); test: nAChR functional assay, membrane potential change; assay type: cell-based
# α4β2 nAChR [2] = target: T1, α4β2 nAChR; test: [3H]epibatidine binding to α4β2 nAChR in cell membranes; settings: binding selectivity for α4β2 over α3β4
# α3β4 nAChR = α3β4 nAChR (Rattus norvegicus, UniProt P04757+P12392); test: nAChR functional assay, membrane potential change; assay type: cell-based
# α3β4α5 nAChR = test: binding affinity against α3β4α5 nAChR
# T1 sequence (P09483 31-630): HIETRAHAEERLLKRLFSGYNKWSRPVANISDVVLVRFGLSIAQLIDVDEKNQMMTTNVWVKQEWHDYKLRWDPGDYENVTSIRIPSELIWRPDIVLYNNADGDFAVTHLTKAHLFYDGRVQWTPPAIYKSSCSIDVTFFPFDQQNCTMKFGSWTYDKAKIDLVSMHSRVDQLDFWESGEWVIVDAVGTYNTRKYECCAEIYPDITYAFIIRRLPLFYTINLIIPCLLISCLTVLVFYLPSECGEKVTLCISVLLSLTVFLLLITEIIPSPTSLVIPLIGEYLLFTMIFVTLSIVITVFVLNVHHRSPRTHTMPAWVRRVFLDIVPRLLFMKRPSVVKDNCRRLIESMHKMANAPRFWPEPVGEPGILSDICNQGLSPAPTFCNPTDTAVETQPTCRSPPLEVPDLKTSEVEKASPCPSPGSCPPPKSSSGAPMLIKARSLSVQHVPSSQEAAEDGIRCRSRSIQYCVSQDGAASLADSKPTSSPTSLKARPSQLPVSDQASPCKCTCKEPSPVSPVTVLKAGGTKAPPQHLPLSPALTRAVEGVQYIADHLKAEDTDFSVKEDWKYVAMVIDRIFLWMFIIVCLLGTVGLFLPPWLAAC
# T1 sequence (P12390 25-500): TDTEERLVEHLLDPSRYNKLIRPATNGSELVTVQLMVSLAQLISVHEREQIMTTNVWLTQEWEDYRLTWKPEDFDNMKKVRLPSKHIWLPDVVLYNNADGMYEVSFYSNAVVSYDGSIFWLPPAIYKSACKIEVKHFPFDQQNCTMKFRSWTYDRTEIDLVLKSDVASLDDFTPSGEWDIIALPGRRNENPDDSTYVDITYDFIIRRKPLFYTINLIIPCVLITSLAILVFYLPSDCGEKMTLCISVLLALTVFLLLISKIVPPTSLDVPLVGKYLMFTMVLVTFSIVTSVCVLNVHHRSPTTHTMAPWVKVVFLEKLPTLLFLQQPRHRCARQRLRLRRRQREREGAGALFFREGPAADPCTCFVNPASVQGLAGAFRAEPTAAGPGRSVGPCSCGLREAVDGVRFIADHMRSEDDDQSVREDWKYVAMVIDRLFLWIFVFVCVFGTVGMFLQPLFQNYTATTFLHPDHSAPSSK
# Chain of α3β4 nAChR (P04757 26-499): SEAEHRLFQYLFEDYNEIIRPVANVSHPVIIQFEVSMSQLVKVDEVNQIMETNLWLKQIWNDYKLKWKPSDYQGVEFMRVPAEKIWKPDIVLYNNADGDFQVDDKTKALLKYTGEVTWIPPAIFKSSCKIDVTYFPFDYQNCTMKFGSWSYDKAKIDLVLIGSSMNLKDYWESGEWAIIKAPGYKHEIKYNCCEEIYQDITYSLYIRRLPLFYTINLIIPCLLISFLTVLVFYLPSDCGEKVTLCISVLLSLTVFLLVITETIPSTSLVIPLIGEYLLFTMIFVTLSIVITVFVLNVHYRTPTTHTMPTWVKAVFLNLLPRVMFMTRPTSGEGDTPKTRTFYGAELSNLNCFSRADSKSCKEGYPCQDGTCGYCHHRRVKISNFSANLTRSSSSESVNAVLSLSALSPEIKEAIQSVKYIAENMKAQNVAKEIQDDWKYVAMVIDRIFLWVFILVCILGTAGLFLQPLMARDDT
# Chain of α3β4 nAChR (P12392 21-495): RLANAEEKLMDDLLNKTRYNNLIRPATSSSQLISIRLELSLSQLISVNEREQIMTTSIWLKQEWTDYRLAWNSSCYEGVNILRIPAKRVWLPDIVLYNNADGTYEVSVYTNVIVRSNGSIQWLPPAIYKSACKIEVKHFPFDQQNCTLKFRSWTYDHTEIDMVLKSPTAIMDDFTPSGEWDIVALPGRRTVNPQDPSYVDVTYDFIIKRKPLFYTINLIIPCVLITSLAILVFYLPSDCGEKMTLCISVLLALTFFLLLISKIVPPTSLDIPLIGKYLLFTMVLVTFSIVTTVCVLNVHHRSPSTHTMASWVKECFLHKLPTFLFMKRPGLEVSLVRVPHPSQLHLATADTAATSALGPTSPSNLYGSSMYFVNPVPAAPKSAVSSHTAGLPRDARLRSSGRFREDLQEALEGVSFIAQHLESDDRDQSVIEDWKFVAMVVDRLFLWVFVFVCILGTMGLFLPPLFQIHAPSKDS
SMILES,"agonist activity at α4β2 nAChR (α4β2 nAChR [1]; membrane potential change, HEK cells, up to 10 µM)",mode of inhibition of nicotine's activity (α4β2 nAChR [1]; nicotine dose response curves with various concentrations of 301),"inverse agonist activity (α4β2 nAChR [1]; α4β2-containing cells, very high concentrations)",selectivity (fold) (α3β4 Ki/α4β2 Ki) (α4β2 nAChR [2]),pIC50 (α3β4 nAChR),"agonist activity at α3β4 nAChR (α3β4 nAChR; membrane potential change, HEK cells)",binding affinity Kd/Ki against α3β4α5 nAChR (α3β4α5 nAChR),"Emax (α4β2 nAChR [1]; HEK293, read-out: nicotine maximum stimulation)"
"CC(C)(C)C1CCC(CN2C(=N)N(CCCC[C@H]3CNC(=N)N3CCc3cccnc3)C[C@H]2Cc2ccccc2)CC1 (stereo partly drawn) [Compound 301, (R)-4-Benzyl-3-((4-tert-butylcyclohexyl)methyl)-1-(4-((S)-2-imino-3-(2-(pyridin-3-yl)ethyl)imidazolidin-4-yl)butyl)imidazolidin-2-imine]",no agonist activity,noncompetitive,potential inverse agonist activity,~500 fold,< 5.00,no agonist activity,9.062 µM,–
"CN1CCC[C@H]1c1cccnc1 [nicotine, reference compound]",–,–,–,–,–,–,–,100%
